Test results reported in article PMC9295786, “Discovery of potent BET bromodomain 1 stereoselective inhibitors using DNA-encoded chemical library selections” (Proceedings of the National Academy of Sciences of the …, 2022).

Assays:
MOLM-13 cells [1] = assay: Cell cycle analysis by flow cytometry; assay type: cell-based; settings: 24 h of treatment at the IC50
BRD2-BD1 = target: T1, BRD2-BD1 (Homo sapiens, UniProt P25440); assay: BromoKdELECT assay; assay type: binding
T1 construct: two similar tandem bromodomains (BD1 and BD2); purchased Eurofins DiscoverX (Fremont, CA); host or cells: E. coli host derived from the BL21 strain, T7 phage

BRD4-BD2 = target: T2, BRD4-BD2 (Homo sapiens, UniProt O60885); assay: AlphaScreen competition assay with biotinylated JQ1; assay type: binding; settings: read-out: BRD4-BD2 IC50
T2 construct: two similar tandem bromodomains (BD1 and BD2); made in house; host or cells: bacteria (pET15b or pET28b vector)

MOLM-13 cells [2] = assay: Apoptosis detection (Annexin V) by flow cytometry; assay type: cell-based; settings: 72 h of treatment
MV4;11 cells [3] = assay: Cell cycle analysis by flow cytometry; assay type: cell-based; settings: 24 h of treatment at the IC50
BRDT-BD1 [4] = target: T3, BRDT-BD1 (Homo sapiens, UniProt Q58F21); assay: BromoKdELECT assay; assay type: binding; design: the first bromodomain of BRDT (BRDT-BD1); purchased Eurofins DiscoverX (Fremont, CA); host or cells: E. coli host derived from the BL21 strain, T7 phage
THP1 cells = assay: Cell viability by CellTiterGlo; assay type: cell-based; settings: Homo sapiens, THP-1; 72 h of treatment, CellTiterGlo, normalized to DMSO; read-out: Viability IC50 THP1
BRD4-BD1 [5] = target: T4, BRD4-BD1 (Homo sapiens, UniProt O60885); assay: AlphaScreen competition assay with biotinylated JQ1; assay type: binding; design: the bromodomain 1 (BD1) of BRD4; made in house; host or cells: bacteria (pET15b or pET28b vector)
BRD3-BD1 = target: T5, BRD3-BD1 (Homo sapiens, UniProt Q15059); assay: BromoKdELECT assay; assay type: binding
T5 construct: two similar tandem bromodomains (BD1 and BD2); purchased Eurofins DiscoverX (Fremont, CA); host or cells: E. coli host derived from the BL21 strain, T7 phage

MOLM-13 cells [6] = assay: Cell viability by CellTiterGlo; assay type: cell-based; settings: Homo sapiens, MOLM-13; 72 h of treatment, CellTiterGlo, normalized to DMSO; read-out: Viability IC50 MOLM-13
BRD4-BD1 [7] = target: T4, BRD4-BD1; assay: BromoKdELECT assay; assay type: binding; design: the bromodomain 1 (BD1) of BRD4; purchased Eurofins DiscoverX (Fremont, CA); host or cells: E. coli host derived from the BL21 strain, T7 phage
BRDT-BD2 = target: T6, BRDT-BD2 (Homo sapiens, UniProt Q58F21); assay: AlphaScreen competition assay with biotinylated JQ1; assay type: binding; settings: read-out: BRDT-BD2 IC50
T6 construct: two similar tandem bromodomains (BD1 and BD2); made in house; host or cells: bacteria (pET15b or pET28b vector)

[8] = Metabolic stability assay in liver microsomes (MLM); assay type: in vitro ADME; settings: mouse liver microsomes 0.5 mg protein/mL, compound 2.0 μM, NADPH 1.0 mM; read-out: MLM t1/2 (half-life)
BRDT-BD1 [9] = target: T3, BRDT-BD1; assay: AlphaScreen competition assay with biotinylated JQ1; assay type: binding; design: the first bromodomain of BRDT (BRDT-BD1); made in house; host or cells: bacteria (pET15b or pET28b vector)
MV4;11 cells [10] = assay: Cell viability by CellTiterGlo; assay type: cell-based; settings: Homo sapiens, MV4-11
[11] = test system: MYC expression in MV4;11 cells; assay: MYC expression by RT-qPCR; assay type: cell-based; settings: 8 h of treatment
[12] = test system: MYC expression in MOLM-13 cells; assay: MYC expression by RT-qPCR; assay type: cell-based; settings: 8 h of treatment
BRD3-BD2 = target: T7, BRD3-BD2 (Homo sapiens, UniProt Q15059); assay: BromoKdELECT assay; assay type: binding
T7 construct: two similar tandem bromodomains (BD1 and BD2); purchased Eurofins DiscoverX (Fremont, CA); host or cells: E. coli host derived from the BL21 strain, T7 phage

BRD2-BD2 = target: T8, BRD2-BD2 (Homo sapiens, UniProt P25440); assay: BromoKdELECT assay; assay type: binding
T8 construct: two similar tandem bromodomains (BD1 and BD2); purchased Eurofins DiscoverX (Fremont, CA); host or cells: E. coli host derived from the BL21 strain, T7 phage

[13] = Metabolic stability assay in liver microsomes (HLM); assay type: in vitro ADME; settings: human liver microsomes 0.5 mg protein/mL, compound 2.0 μM, NADPH 1.0 mM; read-out: HLM t1/2 (half-life)
Kasumi1 cells = assay: Cell viability by CellTiterGlo; assay type: cell-based; settings: Homo sapiens, Kasumi 1; 72 h of treatment, CellTiterGlo, normalized to DMSO; read-out: Viability IC50 Kasumi1
MV4;11 cells [14] = assay: Apoptosis detection (Annexin V) by flow cytometry; assay type: cell-based; settings: 72 h of treatment

T5 sequence (Q15059 34-140 limits assumed): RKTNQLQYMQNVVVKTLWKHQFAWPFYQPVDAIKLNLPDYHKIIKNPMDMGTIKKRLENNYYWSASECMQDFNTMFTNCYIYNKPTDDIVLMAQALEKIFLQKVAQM
T1 sequence (P25440 74-180 limits assumed): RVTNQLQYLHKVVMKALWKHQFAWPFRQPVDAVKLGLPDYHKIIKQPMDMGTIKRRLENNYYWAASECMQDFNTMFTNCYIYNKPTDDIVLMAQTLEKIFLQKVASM
T7 sequence (Q15059 306-415 limits assumed): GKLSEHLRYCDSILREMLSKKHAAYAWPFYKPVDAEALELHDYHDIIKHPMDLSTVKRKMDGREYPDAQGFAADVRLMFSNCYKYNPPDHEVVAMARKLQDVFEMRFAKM
T8 sequence (P25440 344-453 limits assumed): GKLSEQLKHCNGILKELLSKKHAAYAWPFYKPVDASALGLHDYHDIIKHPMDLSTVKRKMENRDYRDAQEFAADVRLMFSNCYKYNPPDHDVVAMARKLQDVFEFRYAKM

Kd (BRD2-BD1; BromoKdELECT): 0.26 nM | IC50 (BRD2-BD1; BromoKdELECT, read-out: IC50 against BRD2-BDT1): 0.26 nM | BRD2-BD1 selectivity (BRD2-BD1; over BRD2-BD2, BromoKdELECT Kd ratio): 420 fold | IC50 (BRD4-BD2): 12900 nM | Kd (BRDT-BD1 [4]): 0.22 nM | IC50 (BRDT-BD1 [4]; read-out: IC50 against BRDT-BD1): 0.22 nM | BRD4-BD1 vs. BRD4-BD2 fold (BRD4-BD1 selectivity) (BRD4-BD1 [5]; ratio of AlphaScreen IC50 values, NE = not efficient): 3909 fold | IC50 (BRD4-BD1 [5]; read-out: BRD4-BD1 IC50): 3.3 nM | Kd (BRD3-BD1; BromoKdELECT): 0.13 nM | IC50 (BRD3-BD1; BromoKdELECT, read-out: IC50 against BRD3-BD1): 0.13 nM | BRD3-BD1 selectivity (BRD3-BD1; over BRD3-BD2, BromoKdELECT Kd ratio): 5,920 fold | Kd (BRD4-BD1 [7]): 0.29 nM | IC50 (BRD4-BD1 [7]; read-out: IC50 against BRD4-BD1): 0.29 nM | IC50 (BRDT-BD2): 10400 nM | half-life at 2 μM [8]: 13 min | IC50 (BRDT-BD1 [9]): 2.1 nM | fold more potent than the S-enantiomer (CDD-786) in inhibiting BRDT-BD1 (BRDT-BD1 [9]): 50 fold | fold more potent than (+)-JQ1 for BRDT-BD1 (BRDT-BD1 [9]; AlphaScreen): 22 fold | fold more selective than (+)-JQ1 for BRDT-BD1 (BRDT-BD1 [9]; AlphaScreen): ~2,200 fold | EC50 (MV4;11 cells [10]; Table S6, NE = not efficient, read-out: MV4-11 EC50 (viability)): 8 nM | Kd (BRD3-BD2): 770 nM | Kd (BRD2-BD2): 110 nM | half-life at 2 μM [13]: 33 min
Structure (SMILES): CNC(=O)[C@@H](CC1CCN(C(=O)Cc2ccc3[nH]c(=O)cc(C)c3c2)CC1)NC(=O)c1ccc(-c2ccc(C)cc2C)cn1 [CDD-787]
Effect on the cell cycle, MOLM-13 (MOLM-13 cells [1]): G1 arrest | Induction of apoptosis (Annexin V+ cells), MOLM-13 (MOLM-13 cells [2]): apoptosis | Effect on the cell cycle, MV4;11 (MV4;11 cells [3]): G1 arrest | IC50 (THP1 cells): 11.8 nM | IC50 (MOLM-13 cells [6]): 16 nM | IC50 (MV4;11 cells [10]; 72 h of treatment, CellTiterGlo, normalized to DMSO, read-out: Viability IC50 MV4;11): 8.3 nM | MYC expression, MV4;11 [11]: suppressed | MYC expression, MOLM-13 [12]: suppressed | IC50 (Kasumi1 cells): 8.4 nM | Induction of apoptosis (Annexin V+ cells), MV4;11 (MV4;11 cells [14]): apoptosis
